Laboratory results taken from PMC3919815, “Anti-Tumor Effects of Novel 5-O-Acyl Plumbagins Based on the Inhibition of Mammalian DNA Replicative Polymerase Activity” (PLoS ONE, 2014).

What was measured:
Human pol κ = biological target: T1, Human pol κ (Homo sapiens, UniProt Q9UBT6); assay: DNA polymerase activity inhibition; type: biochemical; conditions: 10 µM compound; Fig. 4
T1 construct: A truncated form of pol κ (residues 1–560) with 6× His-tags attached at the C-terminus; 6× His (C); made in house; host or cells: E. coli
T1 sequence (Q9UBT6 1-560): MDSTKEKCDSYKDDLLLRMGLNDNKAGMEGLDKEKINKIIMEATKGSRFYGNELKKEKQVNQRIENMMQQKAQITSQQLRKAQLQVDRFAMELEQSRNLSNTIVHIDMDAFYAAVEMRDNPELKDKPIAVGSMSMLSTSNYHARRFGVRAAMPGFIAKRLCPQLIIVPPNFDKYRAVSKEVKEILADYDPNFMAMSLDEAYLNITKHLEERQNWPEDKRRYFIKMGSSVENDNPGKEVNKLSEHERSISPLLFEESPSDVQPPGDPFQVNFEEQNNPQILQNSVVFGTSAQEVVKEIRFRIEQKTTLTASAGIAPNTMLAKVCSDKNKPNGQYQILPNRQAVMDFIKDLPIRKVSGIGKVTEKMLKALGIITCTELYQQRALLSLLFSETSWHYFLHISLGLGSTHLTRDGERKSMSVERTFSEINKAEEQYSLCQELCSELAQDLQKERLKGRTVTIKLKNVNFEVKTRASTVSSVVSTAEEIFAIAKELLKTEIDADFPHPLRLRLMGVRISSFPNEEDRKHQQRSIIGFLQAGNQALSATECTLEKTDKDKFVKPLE
Excerpt: (§1) Pol α was purified from calf thymus by immunoaffinity column chromatography as described by Tamai et al.. Recombinant rat pol β was purified from Escherichia coli JMpβ5 as described by Date et al.. The human pol γ catalytic gene was cloned into pFastBac. Histidine-tagged enzyme was expressed using the BACTO-BAC HT Baculovirus Expression System according to the manufacturer's instructions (Life Technologies, Frederick, MD, USA) and purified using ProBound resin (Invitrogen Japan, Tokyo Japan). Human pols δ and ε were purified by nuclear fractionation of human peripheral blood cancer cells (Molt-4) using the second subunit of pol δ and ε-conjugated affinity column chromatography, respectively. A truncated form of human pol η (residues 1–511) tagged with His6 at its C-terminal was expressed in E. coli cells and purified as described by Kusumoto et al.. A recombinant mouse pol ι tagged with His6 at its C-terminal was expressed and purified by Ni–NTA column chromatography. A truncated form of pol κ (residues 1–560) with 6× His-tags attached at the C-terminus was overexpressed in E. coli and purified as described by Ohashi et al.. Recombinant human His-pol λ was overexpressed and purified according to a method described by Shimazaki et al.. Recombinant human His-pol μ was overexpressed in E. coli BL21 and purified using Glutathione Sepharose 4B (GE Healthcare Bio-Science Corp., Piscataway, NJ, USA) column chromatography according to the method for pol λ preparation by Shimazaki et al.. Pol α from a higher plant, cauliflower, was purified from the inflorescence structure according to the methods outlined by Sakaguchi et al.. Recombinant rice (Oryza sativa L. cv. Nipponbare) pol λ tagged with His6 at the C-terminus was expressed in E. coli and purified as described by Uchiyama et al.. Calf TdT, Taq pol, T4 pol, T7 RNA polymerase, and T4 polynucleotide kinase were purchased from Takara Bio Inc. (Kyoto, Japan). The Klenow fragment of pol I from E. coli was purchased from Worthington Biochemical Corp. (Freehold, NJ, USA). Bovine pancreas deoxyribonuclease I was obtained from Stratagene Cloning Systems (La Jolla, CA, USA).
(§2) The reaction mixtures for calf pol α, rat pol β, plant pol α, and prokaryotic pols have been described previously, [35]; those for pol γ as well as pols δ and ε were previously described by Umeda et al. and Ogawa et al., respectively. Those for pols η, ι, and κ were the same as for pol α, and those for pols λ and μ were the same as for pol β. For the pol reactions, poly(dA)/oligo(dT)18 (A/T, 2/1) and dTTP were used as the DNA template-primer substrate and nucleotide (dNTP; 2′-deoxynucleoside-5′-triphosphate) substrate, respectively. For the TdT reactions, oligo(dT)18 (3′-OH) and dTTP were used as the DNA primer substrate and nucleotide substrate, respectively.
(§3) The chemically synthesized 5-O-acyl plumbagins (2a–j) were dissolved in distilled dimethyl sulfoxide (DMSO) to various concentrations and sonicated for 30 s. Subsequently, 4 µL aliquots were mixed with 16 µL of each enzyme (0.05 units) in 50 mM Tris-HCl at pH 7.5, containing 1 mM dithiothreitol, 50% glycerol (by vol), and 0.1 mM ethylenediaminetetraacetic acid and held at 0°C for 10 min. These inhibitor-enzyme mixtures in 8 µL volumes were next added to 16 µL of enzyme standard reaction mixture and incubated at 37°C for 60 min, except for Taq pol, which was incubated at 74°C for 60 min. Activity without inhibitor was considered 100%, and the relative activity was determined for each inhibitor concentration. One unit of pol activity was defined as the amount of each enzyme that catalyzed the incorporation of 1 nmol dTTP into synthetic DNA template primers in 60 min, at 37°C, and under standard reaction conditions, [35].

Human pol λ = biological target: T2, Human pol λ (Homo sapiens, UniProt Q9UGP5); assay: DNA polymerase activity inhibition; type: biochemical; conditions: 10 µM compound; Fig. 4
T2 construct: His tag; made in house
T2 sequence (Q9UGP5 1-575): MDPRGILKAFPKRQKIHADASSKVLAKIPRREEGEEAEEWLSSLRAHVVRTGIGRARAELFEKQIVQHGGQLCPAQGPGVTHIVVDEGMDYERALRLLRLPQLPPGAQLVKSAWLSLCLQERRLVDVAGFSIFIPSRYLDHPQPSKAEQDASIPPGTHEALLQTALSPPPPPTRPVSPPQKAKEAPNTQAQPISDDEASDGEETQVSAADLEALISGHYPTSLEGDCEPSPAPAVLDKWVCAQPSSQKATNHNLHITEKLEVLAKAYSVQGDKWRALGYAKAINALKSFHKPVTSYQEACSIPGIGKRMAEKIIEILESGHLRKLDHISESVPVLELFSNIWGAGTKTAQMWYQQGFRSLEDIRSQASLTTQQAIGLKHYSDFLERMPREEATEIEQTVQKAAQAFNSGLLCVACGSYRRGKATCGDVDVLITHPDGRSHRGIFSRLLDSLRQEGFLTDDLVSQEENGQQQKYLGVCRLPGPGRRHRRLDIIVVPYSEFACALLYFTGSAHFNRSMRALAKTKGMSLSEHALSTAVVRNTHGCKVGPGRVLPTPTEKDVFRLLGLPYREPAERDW
Excerpt: as §1, §2, §3

Calf pol α = biological target: T3, Calf pol α (Bos taurus, UniProt A0AAA9TD94); assay: DNA polymerase activity inhibition; type: biochemical; conditions: 10 µM compound; Fig. 4
T3 construct: from tissue; host or cells: calf thymus
Excerpt: as §1, §2, §3

HCT116 (colon cancer) = assay: Cancer cell viability, MTT assay; type: cell-based, human; conditions: 48 h, MTT; for suppression of cell proliferation: Fig. 5
Method: The following human cancer cell lines were obtained from the American Type Culture Collection (Manassas, VA, USA): lung (A549), prostate (DU145 and PC3), colon (HCT116 and HT-29), cervix (HeLa), hepatocellular liver (HepG2), breast (MCF-7), and pancreatic cancer (PANC-1). These cells were cultured in RPMI 1640 medium supplemented with 10% fetal bovine serum, penicillin (100 units/mL), streptomycin (100 µg/mL), and 1.6 mg/mL NaHCO3 at 37°C in a humid atmosphere of 5% CO2/95% air. For the cell viability assay, cells were seeded at 1×10^3 cells/well in a 96-well microplate with various concentrations of the test compounds, and incubated for 48 h. MTT (3-(4,5-dimethylthiazol-2-yl)-2,5-diphenyl tetrazolium bromide) solution was added to a final concentration 0.6 mg/mL in Milli-Q purified water for 2 h, after which time the medium was discarded and the cells lysed in DMSO. A540 was then measured in a microplate reader (Model 680, Bio-Rad Laboratories, Hercules, CA, USA).

HT-29 solid tumors = assay: In vivo anti-tumor assay; design: species or system nude mice; conditions: at 40 days; 5 mg/kg subcutaneously in PBS, versus PBS control; n = 6
Excerpt: Male BALB/c nu/nu mice at 5 week of age (18 g) were purchased from Japan SLC, Inc. (Shizuoka, Japan). Mice receiving standard laboratory chow and water ad libitum were acclimatized for 1 week before inoculation with cancer cells. For in vivo experiments, human colon HT-29 cells (1×10^7 cells/mouse) were subcutaneously injected into nude mice. Mice bearing solid tumors that had grown to approximately 100 mm^3 in volume (tumor volume = length×width×height) at 12 days after implantation were used for the assessment of anti-tumor effects. They were divided randomly into five groups (n = 6/group). One of the five groups was a control group injected with 0.1 mL of phosphate buffered saline (PBS) alone, and other groups were injected with vitamin K3 (3), juglone (4), C18:1-acyl juglone (5f), and C18:1-acyl plumbagin (2f) dissolved in PBS at a dose of 5 mg/kg. The above administrations all took place between days 12–39 subsequent to implantation. All mice were injected subcutaneously 14 times at […] with the compound and PBS alone (control). Tumor growth was measured at 1-day intervals for 40 days after implantation. At the end of the in vivo anti-tumor assay, some mice treated with the test compounds and PBS were independently examined to observe major organs such as lung, heart, spleen, stomach, liver, pancreas, kidney, intestine, and brain.

[1] = Stability under basic conditions (Triton B, UV-vis); type: physicochemical; conditions: 1 equivalent Triton B in 1,4-dioxane and MeOH, 1.1×10^−3 M, 25°C
Method: A 2.2×10^−2 M solution of Triton B in MeOH was added to a 2.2×10^−2 M solution of each sample in 1,4-dioxane. Then, the mixture was diluted with 1,4-dioxane to a concentration of 1.1×10^−3 M. Then, the stability of each compound was monitored by UV-vis spectroscopy. UV-vis spectra were measured at 25°C on a UV-vis spectrophotometer (JASCO V-650, Tokyo, Japan). For comparison, UV-vis spectra of 1.1×10^−3 M solution of C18:1-acyl plumbagin (2f), and C18:1-acyl juglone (5f) in 1,4-dioxane and MeOH (19/1, v/v) were measured.

calf thymus dsDNA = assay: Thermal transition of dsDNA; type: binding; conditions: 15 µM compound (positive control); 6 µg/mL DNA, 0.1 M Na-phosphate buffer pH 7.0
Method: Thermal transition profiles of dsDNA to single-stranded DNA with or without test compound were obtained with a spectrophotometer (UV-2500; Shimadzu Corp., Kyoto, Japan) equipped with a thermoelectric cell holder according to previous methods. Calf thymus DNA (6 µg/mL) was dissolved in 0.1 M sodium phosphate buffer (pH 7.0) containing 1% DMSO. The solution temperature was equilibrated to 75°C for 10 min, and then increased by 1°C at 2-min intervals for each measurement point. Any change in the absorbance (260 nm) of the compound itself at each temperature point was automatically subtracted from that of DNA plus the compound in the spectrophotometer.

pol α = system: pol α; design: method as in PMID 10942777; conditions: cited from earlier work
pol δ = system: pol δ; design: method as in PMID 10942777; conditions: cited from earlier work
pol ε = system: pol ε; design: method as in PMID 10942777; conditions: cited from earlier work

T3 sequence (A0AAA9TD94 1-1441): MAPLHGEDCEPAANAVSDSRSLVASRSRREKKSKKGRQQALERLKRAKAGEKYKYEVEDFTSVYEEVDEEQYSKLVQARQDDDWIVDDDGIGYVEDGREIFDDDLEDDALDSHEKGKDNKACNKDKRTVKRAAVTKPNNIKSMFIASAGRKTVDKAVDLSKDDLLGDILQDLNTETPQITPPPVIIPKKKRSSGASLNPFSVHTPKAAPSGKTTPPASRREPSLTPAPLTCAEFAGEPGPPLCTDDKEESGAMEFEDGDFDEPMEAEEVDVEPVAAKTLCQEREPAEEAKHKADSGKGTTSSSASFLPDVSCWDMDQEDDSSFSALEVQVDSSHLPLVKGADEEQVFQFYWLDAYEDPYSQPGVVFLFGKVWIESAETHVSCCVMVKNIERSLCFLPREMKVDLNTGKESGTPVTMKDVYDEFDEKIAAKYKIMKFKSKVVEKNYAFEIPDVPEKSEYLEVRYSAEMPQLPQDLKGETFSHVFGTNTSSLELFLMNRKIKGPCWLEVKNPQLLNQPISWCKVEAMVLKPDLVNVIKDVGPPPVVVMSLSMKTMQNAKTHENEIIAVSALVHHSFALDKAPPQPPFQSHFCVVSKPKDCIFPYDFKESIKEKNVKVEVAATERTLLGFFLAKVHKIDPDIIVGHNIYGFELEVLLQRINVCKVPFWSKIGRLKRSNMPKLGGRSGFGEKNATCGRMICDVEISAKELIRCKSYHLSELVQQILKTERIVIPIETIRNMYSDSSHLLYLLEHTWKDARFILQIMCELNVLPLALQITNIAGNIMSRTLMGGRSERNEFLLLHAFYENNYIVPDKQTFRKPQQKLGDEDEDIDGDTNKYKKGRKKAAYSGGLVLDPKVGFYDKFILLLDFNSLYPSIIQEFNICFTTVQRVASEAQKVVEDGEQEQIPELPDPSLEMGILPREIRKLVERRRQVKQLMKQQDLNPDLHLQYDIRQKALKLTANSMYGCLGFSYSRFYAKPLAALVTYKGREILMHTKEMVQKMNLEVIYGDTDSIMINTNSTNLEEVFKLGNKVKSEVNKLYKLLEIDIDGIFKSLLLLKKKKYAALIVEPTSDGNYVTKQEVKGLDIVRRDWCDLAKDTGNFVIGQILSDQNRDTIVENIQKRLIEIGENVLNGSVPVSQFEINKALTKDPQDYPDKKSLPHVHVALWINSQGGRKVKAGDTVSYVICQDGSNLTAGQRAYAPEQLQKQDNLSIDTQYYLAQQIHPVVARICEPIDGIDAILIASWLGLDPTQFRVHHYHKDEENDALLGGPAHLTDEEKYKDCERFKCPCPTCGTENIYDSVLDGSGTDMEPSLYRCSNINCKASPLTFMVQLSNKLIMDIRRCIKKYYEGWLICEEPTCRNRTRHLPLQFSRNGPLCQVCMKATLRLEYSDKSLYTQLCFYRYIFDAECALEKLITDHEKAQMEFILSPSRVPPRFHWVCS

SMILES: CC(=O)Oc1cccc2c1C(=O)C=C(C)C2=O [2a, 5-O-acetoxy-2-methyl-1,4-naphthoquinone]
- inhibition of pol κ relative activity (in words) (Human pol κ): hardly inhibited
- inhibition of pol λ relative activity (in words) (Human pol λ): hardly inhibited
- melting point: 118 to 124 °C

SMILES: CCCCCCCCCCCCCCCCCC(=O)Oc1cccc2c1C(=O)C=C(C)C2=O [2e, 5-O-octadecanoyloxy-2-methyl-1,4-naphthoquinone]
- inhibition of pol α relative activity (in words) (Calf pol α): did not inhibit
- melting point: 67 to 70 °C

SMILES: CCCCC/C=C\C/C=C\CCCCCCCC(=O)Oc1cccc2c1C(=O)C=C(C)C2=O [2g, 5-O-linoleoyloxy-2-methyl-1,4-naphthoquinone]
- cell proliferation rate (HCT116 (colon cancer); 10 µM, control = 100%): < 60%

SMILES: CC/C=C\C/C=C\C/C=C\C/C=C\C/C=C\C/C=C\CCC(=O)Oc1cccc2c1C(=O)C=C(C)C2=O [2j, 5-O-docosahexaenoyloxy-2-methyl-1,4-naphthoquinone]
- inhibition of pol κ relative activity (in words) (Human pol κ): strongest inhibitor
- inhibition of pol λ relative activity (in words) (Human pol λ): strongest inhibitor

SMILES: CCCCCCCC/C=C\CCCCCCCC(=O)Oc1cccc2c1C(=O)C=CC2=O [5f, reference compound]
- decreased rates of tumor volume (HT-29 solid tumors): 10.3%
- stability under basic conditions (UV spectra) [1]: readily decomposes under basic conditions

SMILES: CC[n+]1c(-c2ccccc2)c2cc(N)ccc2c2ccc(N)cc21 [EtBr, ethidium bromide]
- thermal transition (Tm) of dsDNA from 75 to 90°C (calf thymus dsDNA): an obvious thermal transition was observed

SMILES: C[C@@]1(CO)[C@H](O)CC[C@@]2(C)[C@H]1CC[C@H]1C[C@@H]3C[C@@]12CC[C@]3(O)CO [aphidicolin]
- IC50 (pol α): 20 µM
- IC50 (pol δ): 13 µM
- IC50 (pol ε): 16 µM

SMILES: CC1=CC(=O)c2c(O)cccc2C1=O [compound 1, 5-hydroxy-2-methyl-1,4-naphthoquinone, reference compound]
- suppression of cell proliferation (HCT116 (colon cancer); 10 µM): did not
- suppression of cell proliferation (HCT116 (colon cancer); 100 µM): approximately 50%

SMILES: CC1=CC(=O)c2ccccc2C1=O [compound 3, 2-methyl-1,4-naphthoquinone]
- decreased rates of tumor volume (HT-29 solid tumors): 7.0%

SMILES: O=C1C=CC(=O)c2c(O)cccc21 [compound 4, 5-hydroxy-1,4-naphthoquinone]
- decreased rates of tumor volume (HT-29 solid tumors): 9.2%
